Assay results taken from paper PMC10065799, “High-throughput profiling of sequence recognition by tyrosine kinases and SH2 domains using bacterial peptide display” (eLife, 2023).

Assays:
Test in all cases: pTyr-Var library bacterial peptide display kinase screen (enrichment scores)
EPHB2 kinase domain = type: biochemical, human; details: sheet EPHB2
c-Src kinase domain = c-Src kinase domain (Homo sapiens, UniProt P12931); type: biochemical; details: sheet "Src";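 further: log2 fold change in enrichment of variant over reference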
EPHB1 kinase domain = type: biochemical, human; details: for Screen: sheet EPHB1, effect of the variant peptide relative to its reference peptide in the pTyr-Var library screen (enrichment scores); for Screen (variant relative to reference peptide, measured in the pTyr-Var library screen): sheet "EPHB1", variant seq vs reference seq, bacterial peptide display enrichment
c-Abl kinase domain = biological target: T1, c-Abl kinase domain (Mus musculus, UniProt P00520); type: biochemical;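 further: log2 fold change in enrichment of variant over reference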
T1 sequence (P00520 242-493 limits assumed): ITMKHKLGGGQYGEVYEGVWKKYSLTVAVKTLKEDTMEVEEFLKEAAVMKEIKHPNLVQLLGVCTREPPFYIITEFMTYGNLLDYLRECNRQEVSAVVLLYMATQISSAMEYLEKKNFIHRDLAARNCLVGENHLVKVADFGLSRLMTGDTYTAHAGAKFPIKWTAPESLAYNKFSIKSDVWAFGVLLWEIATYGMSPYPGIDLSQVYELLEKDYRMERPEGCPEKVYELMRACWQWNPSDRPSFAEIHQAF

Fer kinase domain = type: biochemical, mouse; details: sheet "Fer"
[1] = effect of variant peptide relative to its reference peptide in the pTyr-Var library screen (enrichment scores)
[2] = effect of the variant peptide relative to its reference peptide in the pTyr-Var library screen
[3] = variant peptide relative to its reference peptide, pTyr-Var library screen enrichment
[4] = effect of the variant relative to its reference peptide in the pTyr-Var library screen
[5] = variant peptide versus its reference peptide in the pTyr-Var library screen
[6] = value of the variant peptide against its reference peptide in the pTyr-Var library screen with Fer

Screen (c-Abl kinase domain; sheet "Abl", effect of variant peptide relative to its reference peptide in pTyr-Var library screen (enrichment))	Sequence	Screen (EPHB2 kinase domain; [1])	Screen (c-Src kinase domain; [2])	Screen (EPHB1 kinase domain)	Screen (c-Abl kinase domain; fig5-data2, sheet "Abl", Screen for the variant/reference peptide pair, pTyr-Var library)	Screen (Fer kinase domain; [3])	Screen (variant relative to reference peptide, measured in the pTyr-Var library screen) (EPHB1 kinase domain)	Screen (EPHB2 kinase domain; [4])	Screen (c-Src kinase domain; [5])	Screen (Fer kinase domain; [6])
–	FFSSEYHCVGG [CTSC_Y345_Y347C_YF]	-0.8292	-0.4888	-0.4883	0.5786	–	–	–	–	–
-1.035	KSIQLYDTPFE [SHB_Y297_G293S_YF]	0.4609	–	–	–	0.2984	0.5631	–	–	–
–	QRALLYEDTLF [UNC13D_Y56_A59T_YF]	–	–	–	–	0.1557	0.5027	0.5663	0.3849	–
–	INPIIYAFVGG [CCR5_Y297_E302G]	0.0201	0.06385	0.07603	–	–	–	–	–	-0.02742
–	GEHSIYSTVNN [CD55_Y266_C267S]	1.232	0.6713	0.557	–	–	–	–	–	1.521
–	LSIQCYLRASD [HMGCS2_Y262_L266S]	0.8903	–	1.205	–	–	–	–	–	1.097
–	WAFNLYDINKF [KCNIP3_Y174_D179Y_YF]	0.891	-0.1467	0.7978	–	–	–	–	–	1.417
–	QNWELYSEGLG [CNKSR1_Y665_R662W]	3.538	2.202	3.643	–	–	–	–	–	–
–	HDRGNYVQLNM [RECQL4_Y353_R355Q]	1.444	–	1.895	–	–	–	–	–	–
–	DLNATYCTIQG [U2SURP_Y634_R635C]	–	–	–	–	–	3.639	3.025	2.996	–
–	LQIPMYEVQWK [KIT_Y553_K550I]	4.801	1.435	3.846	–	–	–	–	–	1.505
–	EEVPLYESATT [DCC_Y809_G805E]	-0.8416	–	-0.9244	–	–	–	–	–	-0.3858
